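Five concentrations, 48 hours, 96-well plates. Abbreviation: GI50, concentration required for 50% inhibition of growth.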 Calls of active or inactive are those of the source. Cut-off read from the data, not from the text of the source: active = GI50 up to about 1.1 µM and inactive = higher. Where a SMILES comes first, the peptide text is derived from it. [ ]: non-standard residue; d: D form. The star is where a group is joined. ξ: configuration not given here. ξD = NC(CC(=O)O)C(=O)O; Ac3c = NC1(C(=O)O)CC1; Boc = CC(C)(C)OC(=O)*; OBn = c1ccc(CO*)cc1
Assays:
Assay in all cases: NCI-60 cell line screen, 48 h
[1] = system: A498
[2] = system: ACHN
[3] = system: COLO 205
[4] = system: HCT-116
[5] = system: HOP-62
[6] = system: KM12
[7] = system: M14
[8] = system: MDA-MB-435
[9] = system: NCI-H23
[10] = system: NCI-H522
[11] = system: SF-268
[12] = system: SF-539
[13] = system: SK-MEL-28
[14] = system: SK-MEL-2
[15] = system: SNB-75
[16] = system: SW-620
[17] = system: UACC-62
[18] = system: HL-60
[19] = system: SR

Measured: GI50

COC(=O)C1(NC(=O)C(CC(=O)OCc2ccccc2)NC(=O)OC(C)(C)C)CC1 (stereo unspecified) (Boc-[ξD](OBn)-[Ac3c]-OMe)
inactive: [1] > 100 µM | [2] > 100 µM | [3] > 100 µM | [4] > 100 µM | [5] > 100 µM | [6] > 100 µM | [7] > 100 µM | [8] > 100 µM | [9] > 100 µM | [10] > 100 µM | [11] > 100 µM | [12] > 100 µM | [13] > 100 µM | [14] > 100 µM | [15] > 100 µM | [16] > 100 µM | [17] 1.58 µM

CC1=CCCC(C)(O)C2CC(CCC3(C)OC3CC1)C(C)C(=O)O2 (stereo unspecified)
inactive: [1] > 100 µM | [2] > 100 µM | [3] > 100 µM | [4] > 100 µM | [18] > 100 µM | [6] > 100 µM | [7] > 100 µM | [8] > 100 µM | [9] > 100 µM | [10] > 100 µM | [11] > 100 µM | [12] > 100 µM | [13] > 100 µM | [14] > 100 µM | [15] > 100 µM | [16] > 100 µM | [17] > 100 µM

CCC1(CC)C(=O)N(C(=O)c2cc(OC)c(OC)c(OC)c2)N(C(=O)c2cc(OC)c(OC)c(OC)c2)C1=O
inactive: [1] > 50 µM | [2] > 50 µM | [3] > 50 µM | [4] > 50 µM | [18] 28.5 µM | [5] > 50 µM | [6] > 50 µM | [7] > 50 µM | [8] > 50 µM | [9] > 50 µM | [10] > 50 µM | [11] > 50 µM | [12] > 50 µM | [13] > 50 µM | [14] > 50 µM | [15] 42.9 µM | [16] > 50 µM | [17] > 50 µM

O=C(/C=C/c1ccc(O)cc1)c1cc(O)cc(O)c1
inactive: [1] 14.9 µM | [2] 6.79 µM | [3] 18 µM | [4] 13.2 µM | [18] 1.92 µM | [5] 15.6 µM | [7] 15.7 µM | [8] 14.2 µM | [9] 20.5 µM | [10] 3.95 µM | [11] 19.8 µM | [12] 13.5 µM | [13] 21.2 µM | [14] 18.1 µM | [15] 17.6 µM | [17] 10.4 µM

COc1ccc2c(c1)[n+]([O-])c(/C(C)=N/NC(=O)c1ccccc1O)c(C)[n+]2[O-]
inactive: [2] > 100 µM | [4] > 100 µM | [18] > 100 µM | [5] > 100 µM | [6] > 100 µM | [7] > 100 µM | [9] > 100 µM | [10] > 100 µM | [11] > 100 µM | [12] > 100 µM | [13] > 100 µM | [14] > 100 µM | [16] > 100 µM | [17] > 100 µM

CCOP(=O)(/C=C\n1cnc2c(=O)n(C(C)=O)c(N)nc21)OCC
inactive: [1] > 100 µM | [2] > 100 µM | [3] > 100 µM | [4] > 100 µM | [18] > 100 µM | [5] > 100 µM | [6] > 100 µM | [7] > 100 µM | [8] > 100 µM | [9] > 100 µM | [12] > 100 µM | [13] > 100 µM | [15] > 100 µM | [16] > 100 µM | [17] > 100 µM

NN/C(=N\S(=O)(=O)c1cc2ccccc2s1)Nc1ccc(Cl)cc1
inactive: [1] 19.9 µM | [2] 23.1 µM | [3] 17.3 µM | [4] 16.9 µM | [18] 22.4 µM | [5] 18.8 µM | [6] 19.1 µM | [7] 20.9 µM | [9] 20.3 µM | [11] 22.8 µM | [12] 16.1 µM | [13] 25.1 µM | [14] 18.1 µM | [15] 20.6 µM | [19] 40.1 µM | [16] 23.1 µM | [17] 17.5 µM

O=C1C2C3C=C4c5ccccc5N(c5ccccc5)C4([C@@H]2C(=O)N1c1ccc(F)cc1)[C@H]1C(=O)N(c2ccc(F)cc2)C(=O)[C@@H]31 (stereo partly specified)
inactive: [2] > 100 µM | [3] > 100 µM | [18] > 100 µM | [6] > 100 µM | [7] > 100 µM | [9] > 100 µM | [10] > 100 µM | [11] 37.2 µM | [12] > 100 µM | [13] > 100 µM | [14] > 100 µM | [15] > 100 µM | [19] > 100 µM | [16] > 100 µM

NCCNC(=S)S
inactive: [1] > 100 µM | [2] > 100 µM | [3] > 100 µM | [4] > 100 µM | [18] 44.7 µM | [5] > 100 µM | [6] > 100 µM | [7] > 100 µM | [8] > 100 µM | [9] > 100 µM | [10] 3.48 µM | [11] 4.9 µM | [13] > 100 µM | [14] > 100 µM | [15] > 100 µM | [16] 59.2 µM | [17] > 100 µM

Cc1nnc2sc(NN)nn12
inactive: [1] > 100 µM | [2] > 100 µM | [3] > 100 µM | [4] > 100 µM | [5] > 100 µM | [6] > 100 µM | [7] > 100 µM | [8] > 100 µM | [9] > 100 µM | [10] > 100 µM | [11] > 100 µM | [12] > 100 µM | [13] > 100 µM | [14] > 100 µM | [15] > 100 µM | [16] > 100 µM | [17] 77.4 µM

Cc1cc2c(c(C)c1O)C(C)(C)CN2C(=O)C(C)(C)C
inactive: [1] 66.7 µM | [2] > 100 µM | [3] 86.7 µM | [4] 84.7 µM | [18] 77.4 µM | [5] > 100 µM | [6] > 100 µM | [7] 80.7 µM | [8] 56 µM | [9] 42.5 µM | [10] > 100 µM | [11] > 100 µM | [12] > 100 µM | [13] > 100 µM | [15] 28 µM | [16] > 100 µM | [17] > 100 µM

C/C(=N/NC(N)=S)c1ccc[nH]1
inactive: [1] > 100 µM | [2] > 100 µM | [3] > 100 µM | [4] > 100 µM | [18] > 100 µM | [5] > 100 µM | [6] > 100 µM | [7] > 100 µM | [8] > 100 µM | [9] > 100 µM | [10] > 100 µM | [11] > 100 µM | [12] > 100 µM | [13] > 100 µM | [14] > 100 µM | [15] > 100 µM | [16] > 100 µM | [17] > 100 µM

CC(Nc1ccc(Cl)c(Cl)c1)c1ccncc1 (stereo unspecified)
inactive: [1] 20.1 µM | [2] 19.1 µM | [3] 16.5 µM | [4] 16.6 µM | [5] 20.9 µM | [6] 14.9 µM | [7] 29 µM | [8] 29.4 µM | [9] 31.4 µM | [10] 12.5 µM | [11] 44 µM | [12] 30.8 µM | [13] 35.7 µM | [14] 22.9 µM | [15] 23 µM | [16] 20.7 µM

Cc1cc(S(=O)(=O)O)ccc1/N=N/c1c(O)ccc2ccccc12
inactive: [2] > 100 µM | [3] > 100 µM | [4] > 100 µM | [18] > 100 µM | [5] > 100 µM | [6] > 100 µM | [7] > 100 µM | [8] > 100 µM | [9] > 100 µM | [10] > 100 µM | [11] > 100 µM | [13] > 100 µM | [14] > 100 µM | [15] > 100 µM | [16] > 100 µM | [17] > 100 µM

CCCCOC(=O)NC(=O)c1cn(CCCOC(=O)CCCCCCCCC(=O)OCCCn2cc(C(=O)NC(=O)OCCCC)c(=O)[nH]c2=O)c(=O)[nH]c1=O
inactive: [2] > 100 µM | [3] > 100 µM | [4] > 100 µM | [18] > 100 µM | [5] > 100 µM | [6] > 100 µM | [7] > 100 µM | [9] > 100 µM | [11] > 100 µM | [12] > 100 µM | [13] > 100 µM | [14] > 100 µM | [19] > 100 µM | [16] > 100 µM | [17] > 100 µM

Cc1nn(C(=O)Cc2ccccc2)c2c1C(c1ccc(/C=C/c3ccccc3)cc1)SC(=N)N2 (stereo unspecified)
inactive: [1] > 100 µM | [2] > 100 µM | [3] > 100 µM | [4] > 100 µM | [18] > 100 µM | [5] > 100 µM | [6] > 100 µM | [7] > 100 µM | [8] > 100 µM | [9] > 100 µM | [10] > 100 µM | [11] > 100 µM | [12] > 100 µM | [13] > 100 µM | [15] > 100 µM | [16] > 100 µM | [17] > 100 µM
